Patent publication US8119674B2, “4-phenylimidazole-2-thione tyrosinase inhibitors and pharmaceutical/cosmetic applications thereof” (Galderma Research & Development, priority 2007, dated 2012)

Molecular target: T1, tyrosinase (Mus musculus, UniProt P11344)
T1 construct: the supernatant obtained constitutes the cell lysate used as tyrosinase source in the enzymatic assay; endogenous in cells; host or cells: B16F1 murine melanoma cells, cultured with alpha-MSH; detergent/ultrasound lysate supernatant
T1 sequence (P11344 19-533): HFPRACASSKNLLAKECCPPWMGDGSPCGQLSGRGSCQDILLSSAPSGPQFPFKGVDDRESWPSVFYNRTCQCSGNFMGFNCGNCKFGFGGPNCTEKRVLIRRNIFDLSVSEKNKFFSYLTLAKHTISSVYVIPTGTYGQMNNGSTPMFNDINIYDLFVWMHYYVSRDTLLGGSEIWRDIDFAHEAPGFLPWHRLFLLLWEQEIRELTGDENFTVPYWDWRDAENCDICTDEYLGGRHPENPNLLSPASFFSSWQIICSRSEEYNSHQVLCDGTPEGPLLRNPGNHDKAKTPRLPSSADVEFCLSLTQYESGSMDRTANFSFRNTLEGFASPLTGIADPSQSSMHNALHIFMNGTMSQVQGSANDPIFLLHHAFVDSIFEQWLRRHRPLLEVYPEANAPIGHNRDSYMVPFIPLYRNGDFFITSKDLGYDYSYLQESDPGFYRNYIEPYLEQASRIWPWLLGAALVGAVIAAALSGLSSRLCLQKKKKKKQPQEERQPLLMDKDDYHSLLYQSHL
Experiment: Tyrosinase activity inhibition assay (B16F1 cell lysate, L-tyrosine substrate, MBTH, absorbance at 520 nm)
Assay type: biochemical
Conditions: lysate of B16F1 cells (murine melanoma line) as tyrosinase source; 37° C., reading at 520 nm after 6 hours; read-out: Tyrosine hydroxylase/Dopa oxidase IC50
Method: The activity of the inhibitors is measured starting from a lysate of B16F1 cells (murine melanoma line). In the presence of the L-tyrosine substrate, the tyrosinase present in these cells catalyses the hydroxylation of L-tyrosine to give L-DOPA and then the oxidation of the L-DOPA to give dopaquinone. In the presence of MBTH (3-methyl-2-benzothiazolinone hydrazone), the dopaquinone is trapped so as to form a pink complex which absorbs at 520 nm.
The B16F1 cells are cultured in DMEM medium+10% foetal calf serum+10^−9 M α-MSH for 4 days at 37° C. under 7% CO2. They are treated with trypsin, washed with PBS, counted and pelleted. The pellet is taken up at 10^7 cells/ml in lysis buffer (10 mM sodium phosphate, pH 6.8-1% Igepal) and the suspension is treated with ultrasound for 10 seconds. After centrifugation for 30 minutes at 4000 rpm, the supernatant obtained constitutes the cell lysate used as tyrosinase source in the enzymatic assay.
The assays are carried out in duplicate in 384-well plates in a total volume of 50 μl. Each well contains:
40 μl of solution containing 1.25 mM L-tyrosine, 6.25 μM L-DOPA (cofactor) and 3.75 mM MBTH in buffer B (62.25 mM sodium phosphate, pH 6.8-2.5% dimethylformamide),
5 μl of inhibitor diluted in DMSO,
5 μl of cell lysate diluted to ½ in 50 mM Tris HCl buffer, pH 7.5.
The plate is incubated at 37° C. and a spectrophotometric reading is carried out at 520 nm after incubating for 6 hours. To avoid any possible absorption of the products, the system uses corrected absorbance (absorbance at time 6 h−absorbance at time zero).
The inhibitors are assayed in terms of dose-response so as to calculate an IC50 (dose which inhibits 50% of the enzymatic activity).
Several internal controls are added to each experiment:
control for 100% activity: the 5 μl of inhibitor are replaced with 5 μl of DMSO,
control for 50% activity: the 5 μl of inhibitor are replaced with 5 μl of phenylthiourea at 300 μM in DMSO,
control for 0% activity: the L-tyrosine substrate is replaced with buffer B.

| IC50 | Compound |
| --- | --- |
| 300 nM | OCc1ccc(-c2c[nH]c(=S)[nH]2)cc1 [Compound 7, 4-(4-(Hydroxymethyl)phenyl)-1,3-dihydroimidazole-2-thione] |
| 400 nM | FC(F)Oc1ccc(-c2c[nH]c(=S)[nH]2)cc1 [Compound 9, 4-(4-(Difluoromethoxy)phenyl)-1,3-dihydroimidazole-2-thione] |
| 1400 nM | COc1cccc(-c2c[nH]c(=S)[nH]2)c1 [Compound 11, 4-(3-Methoxyphenyl)-1,3-dihydroimidazole-2-thione] |
| 200 nM | O=C(O)c1ccc(-c2c[nH]c(=S)[nH]2)cc1 [Compound 3, 4-(4-Carboxyphenyl)-1,3-dihydroimidazole-2-thione] |
